Results as given in patent US5068244A, “Benzocyclohexanes and analgesic compositions thereof” (Roussel Uclaf, priority 1988, dated 1991).

target: T1, opiate receptor K (Cavia porcellus, UniProt P41144); assay: Binding of the opiate receptor K in vitro (displacement of 3H ethylketocyclazocine); details: guinea pig cerebellum membranes, 3H ethylketocyclazocine 1 nM, Tris pH 7.7, 25° C., 40 minutes; read-out: CI50 (the source's name)
T1 construct: Membranous sediment preserved at -30° C; and prepared from guinea pig cerbelli were used; from tissue; host or cells: guinea pig cerebellum membranes
Experimental: Membranous sediment preserved at -30° C. (possibly for 30 days) and prepared from guinea pig cerbelli were used. The sediments were put in suspension in the buffer Tris pH 7.7. Fractions of 2 ml were distributed in hemolysis tubes and ^3 H ethylketocyclazocine 1 nM and the product to be studied were added. The following were determined: the maximum quantity of fixed radioactivity in the presence of ^3 H ethylketocyclazocine alone, the quantity of radioactivity bonded in a non-specific manner in the presence of the tritiated ligand and of an excess (10^-5 M) of the reference product known under the name of U-50488 H and the displacement of specific bonding produced by a dose of 5×10^-5 M of the product to be tested.
These tests were carried out in triplicate and aliquotes of 2 ml were incubated at 25° C. for 40 minutes. After returning to 0° C. for 5 minutes at the end of the incubation, they were filtered with Whatman GF/C filters, rinsed in Tris buffer pH 7.7 and the radioactivity was counted in the presence of scintillating Triton. When the product to be tested displaced the specifically fixed radioactivity by more than 50%, the 50% inhibiting concentration (CI50) was determined by a 7 dose scale. The results of the 50% inhibiting concentration were then expressed in nM. The CI50 was therefore the concentration of the product studied, expressed in nM, necessary to displace 50% of the specifically fixed radioactivity on the receptor studied (LAHTI et al, 1982, Life Sci., Vol. 31, 2257) The results are as follows: […]

T1 sequence (P41144 whole entry): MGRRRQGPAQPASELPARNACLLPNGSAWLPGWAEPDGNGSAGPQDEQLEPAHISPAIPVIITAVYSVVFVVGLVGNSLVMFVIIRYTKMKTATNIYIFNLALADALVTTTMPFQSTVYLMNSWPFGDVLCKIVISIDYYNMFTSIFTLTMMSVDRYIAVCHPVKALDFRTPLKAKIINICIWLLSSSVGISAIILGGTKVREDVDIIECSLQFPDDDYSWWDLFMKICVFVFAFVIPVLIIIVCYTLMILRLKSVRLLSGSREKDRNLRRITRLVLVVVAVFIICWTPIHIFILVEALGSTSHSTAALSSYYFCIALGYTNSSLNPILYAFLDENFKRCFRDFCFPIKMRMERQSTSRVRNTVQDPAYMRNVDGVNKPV

In order of rising IC50:
1. CN(C(=O)Cc1cccc2sccc12)[C@H]1c2ccccc2CC[C@@H]1N1CCCC1 (relative stereo) [Example 20, Trans (±) N-methyl-N-[2-(1-pyrrolidinyl)-1,2,3,4-tetrahydro-1-naphthyl]-4-benzo-[b]-thiophene acetamide]  3.3 nM
2. CN(C(=O)Cc1cccc2ccccc12)[C@H]1c2ccccc2CC[C@@H]1N1CCCC1 (relative stereo) [Example 3, Trans (±) N-methyl-N-[2-(1-pyrrolidinyl)-1,2,3,4-tetrahydro-1-naphthyl]-1-naphthalene acetamide]  11 nM
3. CN(C(=O)Cc1ccc([N+](=O)[O-])cc1)[C@H]1c2ccccc2CC[C@@H]1N1CCCC1 (relative stereo) [Example 2, Trans (±) N-methyl-4-nitro-N-[2-(1-pyrrolidinyl)-1,2,3,4-tetrahydro-1-naphthyl]-benzene acetamide]  12 nM
